Drawing on PubChem BioAssay (NCI), this text covers TGI for 9 compounds.

Test systems include HL-60(TB) leukemia; IGROV1 ovarian; NCI-H226 lung; MOLT-4 leukemia; SN12C renal; SNB-75 CNS; NCI-H23 lung; CCRF-CEM leukemia; 786-0 renal; COLO 205 colon; A549 NSCLC; LOX IMVI melanoma; NCI-H522 lung; MALME-3M melanoma; HT29 colon; SW-620 colon; MDA-MB-435; MDA-N; PC-3 prostate; NCI/ADR-RES ovarian.
Common to all, as to assay: NCI-60 cell line screen, 48 h

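48-hour exposure; five concentrations; linearly interpolated endpoints. TGI marks complete inhibition of growth.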

For the compound `C=C(CN(C)C)C(=O)c1ccccc1C`, the TGI was 15.9 µM with HL-60(TB) leukemia; greater than 100 µM in the assay on IGROV1 ovarian; greater than 100 µM with NCI-H226 lung; 35.7 µM in the assay with MOLT-4 leukemia; greater than 78.1 µM in the assay on SN12C renal; greater than 100 µM in the assay with SNB-75 CNS. For the same compound, the TGI was greater than 100 µM with NCI-H23 lung; 34.2 µM with CCRF-CEM leukemia; 35.8 µM with 786-0 renal; 31.9 µM in the assay on COLO 205 colon; greater than 100 µM in the assay with A549 NSCLC; greater than 100 µM in the assay with LOX IMVI melanoma. Besides, the TGI was 12.3 µM in the assay on NCI-H522 lung, 36 µM in the assay on MALME-3M melanoma, greater than 100 µM in the assay on HT29 colon and 33.1 µM in the assay on SW-620 colon.
As for `CC(=O)[C@@H]1[C@@H](OC(=O)CCC(C)COC2OC(CO)C(O)C(O)C2O)C[C@H]2[C@@H]3CC=C4C[C@@H](OC5OC(CO)C(OC6OC(C)C(O)C(O)C6O)C(O)C5OC5OC(C)C(O)C(O)C5O)CC[C@]4(C)[C@H]3CC[C@]12C` (stereo partly drawn), the TGI in the assay with MOLT-4 leukemia, in the assay on SN12C renal, in the assay with MDA-MB-435, in the assay on SNB-75 CNS, in the assay with NCI-H23 lung and in the assay on CCRF-CEM leukemia was greater than 100 µM throughout. Also, the TGI in the assay on MDA-N is greater than 100 µM; with 786-0 renal, greater than 100 µM; in the assay on COLO 205 colon, greater than 100 µM; with A549 NSCLC, greater than 100 µM; with LOX IMVI melanoma, greater than 100 µM; in the assay with NCI-H522 lung, 97 µM. Moreover, the TGI in the assay on MALME-3M melanoma, in the assay with SW-620 colon and in the assay on PC-3 prostate was greater than 100 µM each time.
Regarding `CCc1ccc(N=Cc2cc(OC)c(OC)c(OC)c2)cc1`, the TGI in the assay with HL-60(TB) leukemia, in the assay on IGROV1 ovarian, in the assay with MOLT-4 leukemia, in the assay with SN12C renal, in the assay on SNB-75 CNS and in the assay with NCI-H23 lung was greater than 100 µM throughout. The TGI in the assay with CCRF-CEM leukemia, with 786-0 renal, in the assay with COLO 205 colon, in the assay with A549 NSCLC, in the assay with LOX IMVI melanoma and in the assay on NCI-H522 lung was greater than 100 µM throughout. The TGI was greater than 100 µM with MALME-3M melanoma, greater than 100 µM in the assay on HT29 colon and 28.7 µM in the assay with SW-620 colon.
As to `CC[C@@]1(N(C)C)C(=O)OCc2c1cc1n(c2=O)Cc2cc3ccccc3nc2-1`, the TGI was 51.9 µM in the assay with NCI/ADR-RES ovarian; 90.1 µM in the assay with NCI-H226 lung; greater than 100 µM with MDA-MB-435; 34.5 µM with SNB-75 CNS; 32 µM in the assay on NCI-H23 lung; 96.3 µM in the assay with CCRF-CEM leukemia. Also, the TGI with 786-0 renal is 73.7 µM; in the assay on COLO 205 colon, greater than 100 µM; in the assay on A549 NSCLC it was greater than 100 µM; with LOX IMVI melanoma it was 33.5 µM; in the assay with NCI-H522 lung, 28.7 µM; with MALME-3M melanoma, 55.3 µM. The TGI with SW-620 colon and in the assay on PC-3 prostate was greater than 100 µM throughout.
`NCC(=O)NC1(c2cc3ccccc3s2)CCCCC1`: the TGI with HL-60(TB) leukemia is 86.8 µM; in the assay with NCI/ADR-RES ovarian it was greater than 100 µM; in the assay with IGROV1 ovarian, greater than 100 µM; with NCI-H226 lung it was 69.5 µM; with SN12C renal, greater than 100 µM; in the assay with MDA-MB-435, greater than 100 µM. Besides, the TGI is 83.7 µM in the assay on SNB-75 CNS; greater than 100 µM with NCI-H23 lung; 59.5 µM with CCRF-CEM leukemia; greater than 100 µM in the assay with MDA-N; greater than 100 µM in the assay on 786-0 renal; 32.5 µM in the assay with COLO 205 colon. For the same compound, the TGI is greater than 100 µM in the assay on A549 NSCLC; greater than 100 µM with LOX IMVI melanoma; greater than 100 µM with NCI-H522 lung; 36.3 µM in the assay on MALME-3M melanoma; 54.8 µM with HT29 colon; greater than 100 µM in the assay on SW-620 colon.
As to `ClCCCN(CCCCl)c1ccc(C=Nc2cccc(Cl)c2)cc1`, the TGI was 58.4 µM with HL-60(TB) leukemia; 52.5 µM in the assay on NCI/ADR-RES ovarian; greater than 100 µM in the assay on IGROV1 ovarian; 8.67 µM in the assay on NCI-H226 lung; greater than 67.4 µM in the assay on MOLT-4 leukemia; greater than 79.7 µM with SN12C renal. Also, the TGI is greater than 80.5 µM with MDA-MB-435; greater than 100 µM in the assay on SNB-75 CNS; 53.5 µM with NCI-H23 lung; 65.2 µM in the assay on CCRF-CEM leukemia; greater than 67.2 µM in the assay on 786-0 renal; greater than 100 µM in the assay on COLO 205 colon. Moreover, the TGI in the assay on A549 NSCLC was greater than 79.7 µM; in the assay with LOX IMVI melanoma it was greater than 100 µM; with NCI-H522 lung, greater than 100 µM; in the assay with MALME-3M melanoma it was 44.3 µM; with HT29 colon, greater than 100 µM; in the assay with SW-620 colon, greater than 100 µM. The compound further returned a TGI with PC-3 prostate of 50.7 µM.
`COc1ccc(Oc2cccc(/C=C3/C(=O)Nc4ccccc43)c2)cc1`: the TGI amounted to 12.5 µM in the assay on HL-60(TB) leukemia; 17.8 µM in the assay with NCI/ADR-RES ovarian; 20.9 µM in the assay on IGROV1 ovarian; 13 µM in the assay with MOLT-4 leukemia; 22.8 µM with SN12C renal; 13.8 µM in the assay with MDA-MB-435. Further, the TGI in the assay on SNB-75 CNS was 28.3 µM; with NCI-H23 lung it was 16.2 µM; with CCRF-CEM leukemia, 22.1 µM; with 786-0 renal, 24.1 µM; with COLO 205 colon, 14 µM; with A549 NSCLC, greater than 100 µM. Moreover, the TGI in the assay with NCI-H522 lung worked out at 19.6 µM; with MALME-3M melanoma it was 24.2 µM; with HT29 colon, 12.9 µM; with SW-620 colon, 23.2 µM; in the assay on PC-3 prostate it was 18.8 µM.
For `O=C(OCc1ccccc1CN1CCOCC1)c1cccc(Br)c1`, the TGI in the assay with NCI/ADR-RES ovarian is 79.8 µM; in the assay on IGROV1 ovarian, greater than 100 µM; in the assay on NCI-H226 lung, greater than 100 µM; in the assay on SN12C renal it was greater than 100 µM; in the assay on MDA-MB-435, greater than 100 µM; in the assay on SNB-75 CNS, greater than 100 µM. For the same compound, the TGI in the assay on NCI-H23 lung was 80 µM; in the assay with 786-0 renal, greater than 100 µM; in the assay with COLO 205 colon it was greater than 100 µM; with A549 NSCLC it was greater than 100 µM; in the assay on LOX IMVI melanoma it was greater than 100 µM; with NCI-H522 lung it was 53.4 µM. In addition, the TGI with MALME-3M melanoma is 45 µM; with HT29 colon, 29.5 µM; with SW-620 colon, greater than 100 µM; in the assay on PC-3 prostate, greater than 100 µM.
Take `COc1ccc2nc3cc(Cl)ccc3c(NCCCN(Cc3cc(OC)c(OC)c(OC)c3)Cc3cc(OC)c(OC)c(OC)c3)c2c1`: the TGI in the assay with NCI/ADR-RES ovarian worked out at 86.5 µM; in the assay with IGROV1 ovarian, 35.1 µM; in the assay with NCI-H226 lung, 34.5 µM; in the assay with MOLT-4 leukemia it was 7.11 µM; with SN12C renal, 41 µM; in the assay with 786-0 renal it was 32.1 µM. In addition, the TGI with COLO 205 colon worked out at 23.5 µM; in the assay on A549 NSCLC it was 30.7 µM; in the assay with NCI-H522 lung, 25.4 µM; with MALME-3M melanoma it was 44.1 µM; with HT29 colon it was 16.6 µM; in the assay with SW-620 colon, 3.22 µM. The TGI in the assay on PC-3 prostate is 30.6 µM.
